According to publication PMC7531004, “Discovery of gramicidin A analogues with altered activities by multidimensional screening of a one-bead-one-compound library” (Nature Communications, 2020):
Where a SMILES comes first, the peptide text is derived from it. [ ]: non-standard residue; d: D form. The star is where a group is joined. NHCH2CH2OH = OCCN*; For = O=C*

Key:
[1] = test system: Streptococcus pyogenes SSI-9; assay: Antibacterial activity assay of bead-derived peptides (three concentrations); format: cell-based; design: key: +++: inhibition by the 640-fold diluted peptide solution; ++: inhibition by the 160-fold diluted solution; +: inhibition by the 40-fold diluted solution; -: no inhibition; conditions: S. pyogenes, bead-derived peptide solution, three concentrations
In short: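 First, each peptide stock was diluted 4- and 16-fold in DMSO; next, the three solutions were mixed with S. pyogenes SSI-9 suspension (2 × 10^5 CFU) in cation-adjusted Mueller Hinton Broth plus 5% laked horse blood; finally, plates stood 18 h at 37 °C before checking for grown-cell precipitation.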

[2] = cell viability/%
In short: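 Peptide stocks diluted 250× in growth medium; P388 cells 1 × 10^4 cells/mL final; 37 °C, 5% CO2, 92 h. WST-1 + 1-methoxy PMS, 4 h, A415. Output: % viability.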

[3] = H+/Na+ transport assay of bead-derived peptides (one-point); format: biochemical; design: key: relative activity; mean of two control wells = 1.00; conditions: bead-derived peptide solution, EYPC/EYPG LUVs;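 also: relative to parent gramicidin A activity set to 1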
In short: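 Values are normalized fluorescence, with Triton X-100 defining 100% and untreated LUVs 0%, and the two control wells averaging 1.00. Vesicles carried 1.0 mM pyranine and included egg yolk phosphatidylglycerol. Peptides were incubated with them 30 min at room temperature.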

Row | Structure (SMILES) | antibacterial activity [1] | viability [2] | H+/Na+ transport activity normalized against the value of 1 (1.00) [3]
1 | CC(C)C[C@@H](NC(=O)[C@H](Cc1c[nH]c2ccccc12)NC(=O)[C@@H](CC(C)C)NC(=O)[C@@H](NC(=O)[C@H](NC(=O)[C@H](C)NC(=O)[C@H](NC(=O)[C@H](C)NC(=O)CNC(=O)[C@@H](NC=O)C(C)C)C(C)C)C(C)C)C(C)C)C(=O)N[C@@H](Cc1c[nH]c2ccccc12)C(=O)N[C@@H](C(=O)N[C@@H](Cc1c[nH]c2ccccc12)C(=O)N[C@@H](C(=O)N[C@@H](Cc1c[nH]c2ccccc12)C(=O)NCCO)C(C)C)[C@H](C)O [compound 79] (For-VGA[dV]A[dV]V[dL]W[dL]W[dT]W[dV]W-NHCH2CH2OH) | ++ | 100% | 1.14
2 | CC(C)C[C@@H](NC(=O)[C@H](C)NC(=O)CNC(=O)[C@@H](NC=O)C(C)C)C(=O)N[C@@H](C)C(=O)N[C@@H](C(=O)N[C@H](C(=O)N[C@@H](C(=O)N[C@@H](Cc1c[nH]c2ccccc12)C(=O)N[C@H](CC(C)C)C(=O)N[C@@H](Cc1c[nH]c2ccccc12)C(=O)N[C@@H](C(=O)N[C@@H](Cc1c[nH]c2ccccc12)C(=O)N[C@@H](C(=O)N[C@@H](Cc1c[nH]c2ccccc12)C(=O)NCCO)C(C)C)[C@H](C)O)C(C)C)C(C)C)C(C)C [compound 87] (For-VGA[dL]A[dV]V[dV]W[dL]W[dT]W[dV]W-NHCH2CH2OH) | ++ | 100% | 1.12
3 | CC(C)C[C@@H](NC(=O)[C@H](Cc1c[nH]c2ccccc12)NC(=O)[C@@H](CC(C)C)NC(=O)[C@@H](NC(=O)[C@H](NC(=O)[C@H](C)NC(=O)[C@H](NC(=O)[C@H](C)NC(=O)CNC(=O)[C@@H](NC=O)C(C)C)C(C)C)C(C)C)C(C)C)C(=O)N[C@@H](Cc1c[nH]c2ccccc12)C(=O)N[C@@H](C(=O)N[C@@H](Cc1c[nH]c2ccccc12)C(=O)N[C@@H](C(=O)N[C@@H](Cc1c[nH]c2ccccc12)C(=O)NCCO)C(C)C)C(C)C [compound 100] (For-VGA[dV]A[dV]V[dL]W[dL]W[dV]W[dV]W-NHCH2CH2OH) | ++ | 9.5% | 1.18
4 | CC(C)C[C@@H](NC(=O)[C@H](C)NC(=O)[C@H](NC(=O)[C@H](C)NC(=O)CNC(=O)[C@@H](NC=O)C(C)C)[C@H](C)O)C(=O)N[C@H](C(=O)N[C@H](CC(C)C)C(=O)N[C@@H](Cc1c[nH]c2ccccc12)C(=O)N[C@@H](C(=O)N[C@@H](Cc1c[nH]c2ccccc12)C(=O)N[C@H](CC(C)C)C(=O)N[C@@H](Cc1c[nH]c2ccccc12)C(=O)N[C@@H](C(=O)N[C@@H](Cc1c[nH]c2ccccc12)C(=O)NCCO)C(C)C)C(C)C)C(C)C [compound 102] (For-VGA[dT]A[dL]V[dL]W[dV]W[dL]W[dV]W-NHCH2CH2OH) | - | 100% | 1.09
5 | CC(C)C[C@@H](NC(=O)[C@H](C)NC(=O)CNC(=O)[C@@H](NC=O)C(C)C)C(=O)N[C@@H](C)C(=O)N[C@@H](C(=O)N[C@H](C(=O)N[C@H](CC(C)C)C(=O)N[C@@H](Cc1c[nH]c2ccccc12)C(=O)N[C@H](CC(C)C)C(=O)N[C@@H](Cc1c[nH]c2ccccc12)C(=O)N[C@@H](C(=O)N[C@@H](Cc1c[nH]c2ccccc12)C(=O)N[C@@H](C(=O)N[C@@H](Cc1c[nH]c2ccccc12)C(=O)NCCO)[C@H](C)O)C(C)C)C(C)C)[C@H](C)O [compound 113] (For-VGA[dL]A[dT]V[dL]W[dL]W[dV]W[dT]W-NHCH2CH2OH) | - | 100% | 1.00
